Results as given in US7166744B2, “Retinoid derivatives and methods for producing said compounds and anti-cancer pharmaceutical composition comprising said compounds” (Chebigen Co., Ltd., priority 2001, dated 2007).
“Also recorded” adds a separate entry of the source.

Key:
Assay type in all cases: cell-based
various cancer cells = assay: MTT proliferation assay, summary over various cancer cells; details: Table 2
Method: The effects of test compounds on proliferation of various cancer cells was examined by 3-(4,5-dimethylthiazol-2-yl)-2,5-diphenyltetrazolium bromide (MTT, Sigma) assay in a dose dependent manner. In the MTT assay, colon, liver, cervix, ovary, and breast cancer cell lines were treated with test compounds at various concentrations. Living cancer cells reduce MTT to dark blue MTT formazan that would be measured by absorbance.
Colon cancer cells, HCT116, DLD-1 and HT29, cervix cancer cells, HeLa and CaSki, ovary cancer cells, SKOV-3, 2774 and OVCAR-3, liver cancer cells, SK-Hep-1, PLCPRF5 and HepG2, and breast cancer cells, ZR75-1 and MDA-MB 231 were seeded at an initial density of 3000 cells per well in 96-well plates. After attachment of cells to the walls of the wells, the medium containing fresh retinoid was treated with various concentrations (0.5 μM, 1 μM, 2.5 μM, 5 μM, 10 μM) for 48 hours. 50 μl of MTT solution (2 mg/ml in PBS) was added to cell culture media. The reaction micture was incubated at 37° C. in a 5% CO2 atmosphere for 4 hours. The supernatant was removed and 150 μl of DMSO was added. The optical density was measured spectrophotometrically at 550 nm. […] For other retinoid derivatives according to the present invention, absorbances were measured by this procedure and IC50 values, concentrations required for 50% growth inhibition, were determined.

[1] = tested on: HCT116 colon cancer cells; assay: Optical microscopy of treated cells, HCT116; details: HCT116, 5 μM, 48 hours, compared to HPR
Method: Both colon cancer HCT116 cells and breast cancer MCF-7 cells were treated with 5 μM of the retinoid derivatives KCBG10 and KCBG41 for 48 hours, and photographed by optical microscope (×200). As a control compound, HPR was used at the same concentration. In FIG. 2, the control represents non-treated cells.

[2] = tested on: PARP (poly(ADP-ribose)polymerase) and CPP32 (caspase-3) cleavage in HCT 116 cells; assay: Western blotting of PARP and CPP32 cleavage; details: 5 μM
Method: FIG. 6 is the cleavage results of PARP and CPP-32, by a Western blotting analysis, derived from colon cancer cells HCT 116 to which the respective retinoid derivatives were treated.
By DAPI (4,6-diamidino-2-phenylindole) staining assay for staining DNA in cellular nucleus, nuclear condensation and fragmentation, characteristic features of apoptosis, were observed. […] In FIG. 4, the control represents non-treated cells. The sub-G1 DNA contents of colon cancer HTC116 cells and breast cancer MCF-7 cells were measured by FACS (Fluorescence-Activated Cell Sorter) assay to quantify the apoptosis (FIG. 5). Finally, in order to further characterize the apoptosis observed in retinoid derivative-treated cells, the cleavage of apoptosis-related proteins, including PARP (poly(ADP-ribose)polymerase) and CPP32 (caspase-3) by Western blotting. […] PARP cleavage occurred in a time-dependent manner, in parallel with the induction of apoptosis (FIG. 6B). C in FIG. 6 represents the result of Western blotting of non-treated cells.

MMP-3 mRNA expression = assay: RT-PCR of MMP-3 mRNA in HCT116; details: HCT116, 1 μM, 36 hours
Method: Previously, it was shown that the synthetic retinoid derivatives inhibit the transcriptional activity of AP-1. Also, it is well known that MMP (matrix metalloproteinase), a main target gene of AP-1 is involved in metastasis of cancer cells. Therefore, the inhibitive effects of the retinoid derivatives on metastasis of cancer was examined by RT-PCR analysis. Colon cancer HCT116 cells were treated with 1 μM retinoid for 36 hours. RNA was isolated from the cells and mRNA expression levels of MMP-1, -2 and -3 were analyzed by RT-PCR. […] As the control, GAPDH was used and it was confirmed that its expression was not affected by retinoid. Meanwhile, the expression level of MMP-3 was affected weakly by KCBG40, intermediately by KCBG41 but strongly by KCBG10 (FIG. 9).

SMILES | anti-cancer activity in cells other than HepG (various cancer cells) | number of viable cancer cells (microscopy) [1] | cleavage of PARP and CPP32 (Western blotting) [2] | effect on MMP-3 mRNA expression level (MMP-3 mRNA expression)
CC1=C(/C=C/C(C)=C/C=C/C(C)=C/C(=O)O)C(C)(C)CCC1 [ATRA, All-trans-retinoic acid, reference compound] | very a low anti-cancer activity |  |  | 
CCCC(=O)Nc1cc(NC(=O)/C=C(C)/C=C/C=C(C)/C=C/C2=C(C)CCCC2(C)C)ccc1O [KCBG41, (2E,4E,6E,8E)-[3,7-dimethyl-9-(2,6,6-trimethylcyclohex-1-enyl)-nona-2,4,6,8-tetraenoylamino]-(3-butyrylamino-4-hydroxy)phenylamide] |  | significant reductions in the number of viable cancer cells; also recorded: more effective on HCT116 than other derivatives | induced the cleavage of the proteins | intermediately
CCCC(=O)Oc1cc(O)ccc1NC(=O)/C=C(C)/C=C/C=C(C)/C=C/C1=C(C)CCCC1(C)C [KCBG10, 2.2-[(2E,4E,6E,8E)-3,7-Dimethyl-9-(2,6,6-trimethylcyclohex-1-enyl)-nona-2,4,6,8-tetraenoylamino]-5-hydroxyphenylbutanoate] |  | significant reductions in the number of viable cancer cells | induced the cleavage of the proteins | strongly
